Assay results published in patent US11999727B2 (Tango Therapeutics, Inc., priority 2020, dated 2024).
Like-named read-outs stand apart in the source and are kept apart here.

What was measured:
[1] = test system: HAP1 MTAP-deleted cell line; experiment: Viability assay, MTAP-deleted cell line; type: cell-based; conditions: read-out: HAP1 MTAP deleted viability
Source text: Table 1 additionally indicates IC50 values in a viability assay for the MTAP-deleted cell line (column 10), indicating the effect of treatment with compound on cell survival.

[2] = test system: HAP1 MTAP-intact cell line; experiment: SDMA in-cell western assay, HAP1 MTAP-intact; type: cell-based; conditions: HAP1 MTAP-intact, read-out: MTAP HAP1 intact IC50
In short: (§1)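 Isogenic HAP1 pair: the MTAP-intact line expresses endogenous MTAP, and the deleted line is MTAP-null. Symmetric dimethylarginine was detected by in-cell western and IC50 values derived for each line.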

[3] = test system: HAP1 MTAP-deleted cell line; experiment: SDMA in-cell western assay, HAP1 MTAP-deleted; type: cell-based; conditions: for IC50: HAP1 MTAP-deleted, read-out: HAP 1 MTAP deleted IC50; for MTAP intact/deleted ratio: IC50 ratio HAP1 MTAP-intact / HAP1 MTAP-deleted
In short: as §1

PRMT5 [4] = biological target: T1, PRMT5 (Homo sapiens, UniProt O14744); experiment: PRMT5 biochemical IC50 assay with MTA as cofactor; conditions: PRMT5, MTA as cofactor; read-out: MTA IC50
T1 construct: purchased Viva (custom protein)

PRMT5 [5] = biological target: T1, PRMT5; experiment: PRMT5 biochemical IC50 assay with no cofactor; conditions: PRMT5, no cofactor; read-out: No Cofactor/ rel IC50
Source text: Table 1 indicates IC50 values (μM) against PRMT5 for exemplary compounds in the presence of SAM as cofactor, with no cofactor, and with MTA as cofactor, respectively (columns 4-6). […] Ki values can be calculated from the IC50 values as described in the Examples section. As detailed in the Examples section, for the assay performed in the presence of SAM, IC50=Ki×1.5 (Ki=IC50/1.5).

PRMT5 [6] = biological target: T1, PRMT5; experiment: PRMT5 biochemical IC50 assay with SAM as cofactor; conditions: PRMT5, SAM as cofactor; read-out: SAM IC50
[7] = Homo sapiens, HAP1, viability, HAP1 MTAP-deleted cell line
[8] = Homo sapiens, HAP1, SDMA in-cell western
[9] = Homo sapiens, HAP1, viability assay, MTAP-deleted cell line
[10] = viability assay, MTAP-deleted cell line

T1 sequence (O14744 whole entry): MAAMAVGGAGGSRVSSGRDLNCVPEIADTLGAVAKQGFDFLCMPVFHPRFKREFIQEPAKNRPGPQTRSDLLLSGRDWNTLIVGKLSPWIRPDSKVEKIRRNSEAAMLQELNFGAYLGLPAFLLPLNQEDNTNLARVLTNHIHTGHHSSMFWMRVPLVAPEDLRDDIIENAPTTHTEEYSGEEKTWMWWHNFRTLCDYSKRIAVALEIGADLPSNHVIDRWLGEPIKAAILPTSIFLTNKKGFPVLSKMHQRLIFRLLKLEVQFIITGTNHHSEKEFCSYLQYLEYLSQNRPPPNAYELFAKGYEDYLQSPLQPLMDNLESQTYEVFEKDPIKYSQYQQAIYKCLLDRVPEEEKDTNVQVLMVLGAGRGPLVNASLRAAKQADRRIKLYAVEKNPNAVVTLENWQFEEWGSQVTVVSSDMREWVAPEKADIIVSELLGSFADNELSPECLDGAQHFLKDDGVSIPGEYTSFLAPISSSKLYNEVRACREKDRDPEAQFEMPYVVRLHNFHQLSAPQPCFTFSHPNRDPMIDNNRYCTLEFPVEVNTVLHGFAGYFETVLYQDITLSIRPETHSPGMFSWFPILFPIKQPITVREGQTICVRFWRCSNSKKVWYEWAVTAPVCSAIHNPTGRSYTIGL
T1 sequence (Q9BQA1 whole entry partner): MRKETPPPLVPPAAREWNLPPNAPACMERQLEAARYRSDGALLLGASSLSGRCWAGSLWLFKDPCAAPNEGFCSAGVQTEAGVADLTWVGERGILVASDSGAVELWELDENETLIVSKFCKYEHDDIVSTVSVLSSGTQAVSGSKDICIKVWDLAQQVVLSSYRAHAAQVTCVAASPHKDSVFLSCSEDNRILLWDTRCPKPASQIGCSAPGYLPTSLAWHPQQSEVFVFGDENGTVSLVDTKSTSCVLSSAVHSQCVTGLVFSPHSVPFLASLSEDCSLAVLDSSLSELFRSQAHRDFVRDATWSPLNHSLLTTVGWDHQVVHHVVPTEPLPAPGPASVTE

Structure (SMILES) | IC50 [1, 7] [nM] | IC50 [2, 8] [nM] | IC50 [3, 8] [nM] | MTAP intact/deleted ratio ([3]; SDMA in-cell western) | IC50 (PRMT5 [4]) [nM] | IC50 (PRMT5 [5]) [nM] | IC50 (PRMT5 [6]) [nM] | IC50 [1, 9] [nM] | IC50 [1, 10] [nM] | IC50 ([2]; SDMA in-cell western) [nM] | IC50 ([3]; SDMA in-cell western) [nM]
CCc1cc(NC(=O)C(=O)N2C[C@@H](C)CC[C@@H]2c2ccc3sc(C(F)(F)CN(C)C)nc3c2)cnc1N (relative stereo) [Compound 1280] | < 1000 | 100 to 1000 | < 100 | A (an IC50 ratio greater than or equal to 10 fold) | < 50 | < 50 | 50 to 500 | – | – | – | –
CCc1cc(NC(=O)C(=O)N2C[C@@H](C)CC[C@@H]2c2ccc(N3CC[C@@H]4CN(C)C[C@@H]4C3)cc2)cnc1N (relative stereo) [Compound 1349] | < 1000 | 100 to 1000 | < 100 | A (an IC50 ratio greater than or equal to 10 fold) | < 50 | < 50 | 50 to 500 | – | – | – | –
Cc1cncc(NC(=O)C(=O)N2C[C@H](C)CC[C@H]2c2cccc(C)c2)c1 (single isomer, unassigned) [Compound 10] | – | > 1000 | > 1000 | B (an IC50 ratio greater than or equal to 3 fold but lower than 10 fold) | 50 to 500 | 50 to 500 | 50 to 500 | > 10000 | – | – | –
Cc1cncc(NC(=O)C(=O)N2C[C@@H](C)CC[C@@H]2c2cccc(C)c2)c1 (single isomer, unassigned) [Compound 11] | – | > 1000 | > 1000 | C (an IC50 ratio of less than 3 fold) | > 500 | > 500 | > 500 | > 10000 | – | – | –
Cc1ccc([C@@H]2CC[C@@H](C)CN2C(=O)C(=O)Nc2cncc(C)c2)cc1 (single isomer, unassigned) [Compound 16] | – | > 1000 | > 1000 | B (an IC50 ratio greater than or equal to 3 fold but lower than 10 fold) | 50 to 500 | > 500 | > 500 | > 10000 | – | – | –
CC[C@@H]1CC[C@@H](c2ccccc2)N(C(=O)C(=O)Nc2cncc(C)c2)C1 (single isomer, unassigned) [Compound 17] | – | > 1000 | > 1000 | B (an IC50 ratio greater than or equal to 3 fold but lower than 10 fold) | 50 to 500 | > 500 | > 500 | > 10000 | – | – | –
Cc1cncc(NC(=O)C(=O)N2C[C@H](C)CC[C@H]2c2ccc(C)c(C)c2)c1 (single isomer, unassigned) [Compound 21] | – | > 1000 | > 1000 | B (an IC50 ratio greater than or equal to 3 fold but lower than 10 fold) | 50 to 500 | 50 to 500 | 50 to 500 | > 10000 | – | – | –
Cc1cc(NC(=O)C(=O)N2CCCC[C@H]2c2cccs2)cnc1N (single isomer, unassigned) [Compound 22] | – | > 1000 | > 1000 | B (an IC50 ratio greater than or equal to 3 fold but lower than 10 fold) | 50 to 500 | > 500 | > 500 | > 10000 | – | – | –
Cc1cc(NC(=O)C(=O)N2CCCC[C@@H]2c2cccs2)cnc1N (single isomer, unassigned) [Compound 24] | – | > 1000 | < 100 | A (an IC50 ratio greater than or equal to 10 fold) | < 50 | 50 to 500 | 50 to 500 | > 10000 | – | – | –
Cc1cc(NC(=O)C(=O)N2CCCC[C@H]2C2CCCCC2)cnc1N (single isomer, unassigned) [Compound 34] | – | > 1000 | > 1000 | C (an IC50 ratio of less than 3 fold) | > 500 | > 500 | > 500 | > 10000 | – | – | –
Cc1cc(NC(=O)C(=O)N2CCCC[C@@H]2C2CCCCC2)cnc1N (single isomer, unassigned) [Compound 42] | – | > 1000 | < 100 | A (an IC50 ratio greater than or equal to 10 fold) | < 50 | 50 to 500 | 50 to 500 | 1000 to 10000 | – | – | –
Cn1nccc1C1CCCCN1C(=O)C(=O)Nc1cncc(C(N)=O)c1 (single isomer, unassigned) [Compound 46] | – | > 1000 | 100 to 1000 | A (an IC50 ratio greater than or equal to 10 fold) | < 50 | 50 to 500 | 50 to 500 | – | > 10000 | – | –
Cc1cc(NC(=O)C(=O)N2CCCC[C@H]2c2ccncc2)cnc1N (single isomer, unassigned) [Compound 47] | – | > 1000 | > 1000 | C (an IC50 ratio of less than 3 fold) | > 500 | > 500 | > 500 | > 10000 | – | – | –
Cc1cc(NC(=O)C(=O)N2CCCC[C@@H]2c2ccncc2)cnc1N (single isomer, unassigned) [Compound 50] | – | > 1000 | 100 to 1000 | B (an IC50 ratio greater than or equal to 3 fold but lower than 10 fold) | < 50 | 50 to 500 | 50 to 500 | > 10000 | – | – | –
Cc1cc(NC(=O)C(=O)N2CCCC[C@@H]2c2ccccc2)cnc1N (single isomer, unassigned) [Compound 51] | – | > 1000 | 100 to 1000 | B (an IC50 ratio greater than or equal to 3 fold but lower than 10 fold) | < 50 | 50 to 500 | 50 to 500 | > 10000 | – | – | –
Cc1cc(NC(=O)C(=O)N2CC(C)(C)CCC2c2ccccc2)cnc1N (single isomer, unassigned) [Compound 52, N-(6-amino-5-methylpyridin-3-yl)-2-(5,5-dimethyl-2-phenylpiperidin-1-yl)-2-oxoacetamide] | – | – | – | A (an IC50 ratio greater than or equal to 10 fold) | < 50 | 50 to 500 | 50 to 500 | – | 1000 to 10000 | 100 to 1000 | < 100
Cc1cccc([C@H]2CCCCN2C(=O)C(=O)Nc2cnc(N)c(C)c2)c1 (single isomer, unassigned) [Compound 54] | – | > 1000 | 100 to 1000 | A (an IC50 ratio greater than or equal to 10 fold) | < 50 | 50 to 500 | 50 to 500 | 1000 to 10000 | – | – | –
Cc1cc(NC(=O)C(=O)N2CCCC[C@H]2c2ccccc2)cnc1N (single isomer, unassigned) [Compound 55] | – | > 1000 | > 1000 | C (an IC50 ratio of less than 3 fold) | 50 to 500 | > 500 | > 500 | > 10000 | – | – | –
Cc1cccc([C@@H]2CCCCN2C(=O)C(=O)Nc2cnc(N)c(C)c2)c1 (single isomer, unassigned) [Compound 57] | – | > 1000 | > 1000 | C (an IC50 ratio of less than 3 fold) | 50 to 500 | > 500 | > 500 | > 10000 | – | – | –
